# Data as given in patent US6489098B1, “Means and methods for monitoring nucleoside reverse transcriptase inhibitor antiretroviral therapy and guiding therapeutic decisions in the treatment of HIV/AIDS” (ViroLogic, Inc., priority 1998, dated 2002).
# “Also recorded” adds a separate entry of the source.
# Assays:
# [1] = system: patient RTV-136, RTV-240, RTV-955 and RTV-960 (A62V, V75I, F77L, F116Y, Q151M); experiment: Phenotypic susceptibility assay, patient isolates with multi-NRTI resistance mutations; assay type: cell-based, HIV-1; conditions: for susceptibility compared to wild-type control RTV: patient RTV pools with MDR mutations
# Protocol: In these experiments patient-derived segment(s) corresponding to the HIV protease and reverse transcriptase coding regions were either patient-derived segments amplified by the reverse transcription-polymerase chain reaction method (RT-PCR) using viral RNA isolated from viral particles present in the serum of HIV-infected individuals or were mutants of wild type HIV-1 made by site directed mutagenesis of a parental clone of resistance test vector DNA. Isolation of viral RNA was performed using standard procedures (e.g. RNAgents Total RNA Isolation System, Promega, Madison Wis. or RNAzol, Tel-Test, Friendswood, Tex.). The RT-PCR protocol was divided into two steps. A retroviral reverse transcriptase [e.g. Moloney MuLV reverse transcriptase (Roche Molecular Systems, Inc., Branchburg, N.J.), or avian myeloblastosis virus (AMV) reverse transcriptase, (Boehringer Mannheim, Indianapolis, Ind.)] was used to copy viral RNA into cDNA. The cDNA was then amplified using a thermostable DNA polymerase [e.g. Taq (Roche Molecular Systems, Inc., Branchburg, N.J.), Tth (Roche Molecular Systems, Inc., Branchburg, N.J.), PrimeZyme (isolated from Thermus brockianus, Biometra, Gottingen, Germany)] or a combination of thermostable polymerases as described for the performance of “long PCR” (Barnes, W. M., (1994) Proc. Natl. Acad. Sci, USA 91, 2216-2220) [e.g. Expand High Fidelity PCR System (Taq+Pwo), (Boehringer Mannheim. Indianapolis, Ind.) OR GeneAmp XL PCR kit (Tth+Vent), (Roche Molecular Systems, Inc., Branchburg, N.J.)].
# Resistance test vectors incorporating the “test” patient-derived segments were constructed as described in PCT International Application No. PCT/US97/01609, filed Jan. 29, 1997 using an amplified DNA product of 1.5 kB prepared by RT-PCR using viral RNA as a template and oligonucleotides PDSApa (1) and PDSAge (2) as primers, followed by digestion with ApaI and AgeI or the isoschizimer PINAI. To ensure that the plasmid DNA corresponding to the resultant resistance test vector comprises a representative sample of the HIV viral quasi-species present in the serum of a given patient, many (>100) independent E. coli transformants obtained in the construction of a given resistance test vector were pooled and used for the preparation of plasmid DNA.
# (§1) Resistance tests were carried out with resistance test vectors using two host cell types. Resistance test vector viral particles were produced by a first host cell (the resistance test vector host cell) that was prepared by transfecting a packaging host cell with the resistance test vector and the packaging expression vector. The resistance test vector viral particles were then used to infect a second host cell (the target host cell) in which the expression of the indicator gene is measured.
# The resistance test vectors containing a functional luciferase gene cassette were constructed and host cells were transfected with the resistance test vector DNA. The resistant test vectors contained patient-derived reverse transcriptase and protease sequences that were either susceptible or resistant to the antiretroviral agents, such as nucleoside reverse transcriptase inhibitors, non-nucleoside reverse transcriptase inhibitors and protease inhibitors. The resistance test vector viral particles produced by transfecting the resistance test vector DNA into host cells, either in the presence or absence of protease inhibitors, were used to infect target host cells grown either in the absence of NRTI or NNRTI or In the presence of increasing concentrations of the drug. The amount of luciferase activIty produced in infected target host cells in the presence of drug was compared to the amount of luciferase produced in infected target host cells in the absence of drug. Drug resistance was measured as the amount of drug required to inhibit by 50% the luciferase activity detected in the absence of drug (Inhibitory concentration 50%, IC50). […]
# [2] = system: HIV-1 RT mutant resistance test vector M41L-A62V-T69SSA-T215Y-RTV; experiment: Phenotypic susceptibility assay, site directed RTV M41L+A62V+T69SSA+T215Y; assay type: cell-based; conditions: RTV with M41L+A62V+T69SSA+T215Y; addition of A62V to M41L+T69SSA+T215Y
# Protocol: as §1
# The resistance test vectors containing a functional luciferase gene cassette were constructed and host cells were transfected with the resistance test vector DNA. The resistant test vectors contained patient-derived reverse transcriptase and protease sequences that were either susceptible or resistant to the antiretroviral agents, such as nucleoside reverse transcriptase inhibitors, non-nucleoside reverse transcriptase inhibitors and protease inhibitors. The resistance test vector viral particles produced by transfecting the resistance test vector DNA into host cells, either in the presence or absence of protease inhibitors, were used to infect target host cells grown either in the absence of NRTI or NNRTI or In the presence of increasing concentrations of the drug. The amount of luciferase activIty produced in infected target host cells in the presence of drug was compared to the amount of luciferase produced in infected target host cells in the absence of drug. Drug resistance was measured as the amount of drug required to inhibit by 50% the luciferase activity detected in the absence of drug (Inhibitory concentration 50%, IC50). The IC50 values were determined by plotting percent drug inhibition vs. log 10 drug concentration.
# Host cells were seeded in 10-cm-diameter dishes and were transfected several days after plating with resistance test vector plasmid DNA and the envelope expression vector. Transfections were performed using a calcium-phosphate precipitation procedure. The cell culture media containing the DNA precipitate was replaced with fresh medium, from one to 24 hours, after transfection. Cell culture media containing resistance test vector viral particles was harvested one to four days after transfection and was passed through a […] filter before being stored at −80° C. HIV capsid protein (p24) levels in the harvested cell culture media were determined by an EIA method as described by the manufacturer (SIAC; Frederick, Md.). Before infection, target cells (293 and 293/T) were plated in cell culture media. Control infections were performed using cell culture media from mock transfections (no DNA) or transfections containing the resistance test vector plasmid DNA without the envelope expression plasmid. One to three or more days after infectIon the media was removed and cell lysis buffer (Promega) was added to each well. […] The inhibitory effect of the drug was determined using the following equation:
# % luciferase inhibition=1−(RLUluc[drug]÷RLUluc)×100
# where RLUluc [drug] is the relative light unit of luciferase activity in infected cells in the presence of drug and RLUluc is the Relative Light Unit of luciferase activity in infected cells in the absence of drug. IC50 values were obtained from the sigmoidal curves that were generated from the data by plotting the percent inhibition of luciferase activity vs. the log 10 drug concentration.
# Mutations may be incorporated alone and/or in combination with other known drug resistance mutations that are thought to modulate the susceptibility of HIV to a certain drug or class of drugs. Mutations are introduced into the resistance test vector through any of the widely known methods for site-directed mutagenesis. In one embodiment of this invention the mega-primer PCR method for site-directed mutagenesis is used.
Compound,susceptibility compared to wild-type control RTV [1],effect on susceptibility (words) [2],fold reduced susceptibility ([1]; four patient viruses with multi-NRTI resistance mutations (FIG. 4))
"Nc1nc(NC2CC2)c2ncn([C@H]3C=C[C@@H](CO)C3)c2n1 [ABC, abacavir]",decreases in susceptibility,no effect on susceptibility,
"Cc1cn([C@H]2C[C@H](N=[N+]=[N-])[C@@H](CO)O2)c(=O)[nH]c1=O [AZT, zidovudine]",decreases in susceptibility,reduced AZT susceptibility more than the combination of M41L and T215Y mutations alone; also recorded: further reduction in susceptibility,
"Cc1cn([C@H]2C=C[C@@H](CO)O2)c(=O)[nH]c1=O [d4T, stavudine]",decrease in susceptibility to d4T; also recorded: decreases in susceptibility,did reduce d4T susceptibility more than the T69SSA mutation alone; also recorded: further reduction in susceptibility,4-12 fold
"Nc1ccn([C@H]2CC[C@@H](CO)O2)c(=O)n1 [ddC, zalcitabine]",decreases in susceptibility,no effect on susceptibility,
"O=c1[nH]cnc2c1ncn2[C@H]1CC[C@@H](CO)O1 [ddI, didanosine]",decreases in susceptibility,further reduction in susceptibility,
